For assay [1], the system named is p27^KIP1. Description: Western blot of p27KIP1 in PC-3(AR2) cells. Type of assay: cell-based, human. The note with it: 10 nM DHT. On the procedure:
41. […] (A) C2C12, COS-1, DU145 and PC-3 cell lines were co-transfected with 30 ng pSG5-AR, 0.5 μg MMTV-Luc, 1 ng pRL-SV40, various amounts of pSG5-bSV as indicated, and adjusted to total amount of 2 μg DNA with pSG5. The assay method was the same as FIG. 2. After measuring the luciferase activity, values relative to lane 1 were calculated. Results are the mean±S.D. of three independent experiments. (B) PC-3 was co-transfected with 30 ng pSG5-AR, 1.5 μg pSG5-bSV, 1 ng pRL-SV40, and 0.5 μg reporter gene as indicated by using SuperFect. […] (C) PC-3(AR2) cell line was transfected with EGFP or EGFP-bSV expressing vector using SuperFect. […] Proteins extracted from cells were loaded on 15% SDS-PAGE and analyzed by western blotting. The intensity of each p27 band was quantified and normalized with control protein which is a non-specific band pick up by the antibody in the same blot. The relative intensities to lane 1 were calculated.
478. Protein samples extracted from the cell were separated on 15% SDS-PAGE and transferred to nitrocellulose membranes. Membranes were incubated 1 h with 5% non-fat milk in TBST at room temperature, followed by the antibodies against p27^(KIP1) (Santa Cruz), followed by AP conjugated goat-antimouse antibody. Blots were developed using the AP developing reagent from Bio-Rad. Band intensity was quantitated by Collage® image analysis software (Fotodyne Inc.).
Background: In western blotting, separated proteins are transferred to a membrane and probed.

Assay [2] concerns LNCaP cell. The note with it: 10 nM DHT; cited from earlier work.
In assay [3] the test system is ARA70 and AR. The note with it: LNCaP cells; cited from earlier work.
The subject of assay [4] is AR. Description: AR reporter gene assay with gelsolin (Example 5). Type of assay: cell-based, human. The note with it: for effect on gelsolin enhanced AR activity: PC-3 cells, co-transfected flag-AR peptides. The source says:
468. A C-terminal fragment of gelsolin (aa 281-731) was isolated from pACT2 encoding gelsolin, and inserted into pSG5-Gal4 DNA-binding domain (DBD) (constructed by Dr. R. Nakao). AR fragment (aa 36-918) was inserted into pCMX-VP16 (a gift from Dr. D. Chen). For gelsolin expression vector, a full-length cDNA fragment of gelsolin from LKCG, a gift from Dr. D. Kwiatkowski (Northwestern University, Evanston, Ill.), was inserted into pSG5. Dr. M. L. Lu (Harvard Medical School, Boston, Mass.) provided the p (ARE) 4-luciferase (LUC) plasmid. Dr. A. Mizokami (University of Kanazawa, Kanazawa, Japan) provided the pGL3-PSA6.0LUC plasmid. The expression plasmids of AR peptides were constructed by inserting the PCR amplified cDNA fragment of AR DBD into pFlag-CMV (Sigma) and the fragments of AR LBD into pCDNA-flag plasmid. Transfection protocol and reporter gene assay were described in previous report (Ting et al. Proc Natl Acad Sci USA 99, 661-666 (2002)).
(Reporter assays use an easily measured gene product as a stand-in for the process of interest.)
Target sequence in this assay (P10275 with tags, fused parts or gaps DEL79-80/DUP473-473): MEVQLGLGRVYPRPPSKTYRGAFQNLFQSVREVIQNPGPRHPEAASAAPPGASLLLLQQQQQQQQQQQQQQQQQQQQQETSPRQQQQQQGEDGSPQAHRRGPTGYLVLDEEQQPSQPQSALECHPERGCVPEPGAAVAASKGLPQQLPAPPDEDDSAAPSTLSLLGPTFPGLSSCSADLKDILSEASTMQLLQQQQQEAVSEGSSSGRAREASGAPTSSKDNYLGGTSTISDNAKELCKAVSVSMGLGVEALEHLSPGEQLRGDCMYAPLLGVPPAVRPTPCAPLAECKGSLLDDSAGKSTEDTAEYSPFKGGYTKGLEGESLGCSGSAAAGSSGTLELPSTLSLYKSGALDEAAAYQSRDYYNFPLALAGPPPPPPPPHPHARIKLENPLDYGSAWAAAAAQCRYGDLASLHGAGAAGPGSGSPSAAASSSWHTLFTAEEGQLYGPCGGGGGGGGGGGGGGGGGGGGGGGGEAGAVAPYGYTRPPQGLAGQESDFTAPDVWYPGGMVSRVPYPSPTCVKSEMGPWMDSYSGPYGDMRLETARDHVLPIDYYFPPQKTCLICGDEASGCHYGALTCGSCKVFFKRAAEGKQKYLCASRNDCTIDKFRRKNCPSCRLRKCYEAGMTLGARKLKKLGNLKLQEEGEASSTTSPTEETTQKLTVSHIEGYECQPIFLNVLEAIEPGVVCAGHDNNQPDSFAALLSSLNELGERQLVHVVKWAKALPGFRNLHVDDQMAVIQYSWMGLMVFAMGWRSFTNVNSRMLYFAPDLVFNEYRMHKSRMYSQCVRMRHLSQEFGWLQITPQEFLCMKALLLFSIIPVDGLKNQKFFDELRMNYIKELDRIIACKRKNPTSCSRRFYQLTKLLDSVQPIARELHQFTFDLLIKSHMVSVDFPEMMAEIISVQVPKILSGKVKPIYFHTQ

For assay [5], the target named is T1, AR N-terminus and AR C-terminus (Homo sapiens, UniProt P10275).
T1 construct: AR DBD plus LBD (GST-AR-DL); expressed in transfected cells; host or cells: PC-3 cells (human prostate cancer line)
T1 sequence (P10275 555-920 limits assumed): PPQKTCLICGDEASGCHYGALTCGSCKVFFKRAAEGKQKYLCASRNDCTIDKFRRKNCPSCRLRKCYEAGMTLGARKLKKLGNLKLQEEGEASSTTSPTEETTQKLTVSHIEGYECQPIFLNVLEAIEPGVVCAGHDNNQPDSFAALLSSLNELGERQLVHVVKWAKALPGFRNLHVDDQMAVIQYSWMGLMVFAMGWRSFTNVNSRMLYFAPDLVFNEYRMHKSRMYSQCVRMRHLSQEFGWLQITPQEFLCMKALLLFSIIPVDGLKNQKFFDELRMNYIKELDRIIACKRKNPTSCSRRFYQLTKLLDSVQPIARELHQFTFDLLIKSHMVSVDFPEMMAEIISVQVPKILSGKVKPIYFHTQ
T1 sequence (P10275 1-559 partner limits assumed): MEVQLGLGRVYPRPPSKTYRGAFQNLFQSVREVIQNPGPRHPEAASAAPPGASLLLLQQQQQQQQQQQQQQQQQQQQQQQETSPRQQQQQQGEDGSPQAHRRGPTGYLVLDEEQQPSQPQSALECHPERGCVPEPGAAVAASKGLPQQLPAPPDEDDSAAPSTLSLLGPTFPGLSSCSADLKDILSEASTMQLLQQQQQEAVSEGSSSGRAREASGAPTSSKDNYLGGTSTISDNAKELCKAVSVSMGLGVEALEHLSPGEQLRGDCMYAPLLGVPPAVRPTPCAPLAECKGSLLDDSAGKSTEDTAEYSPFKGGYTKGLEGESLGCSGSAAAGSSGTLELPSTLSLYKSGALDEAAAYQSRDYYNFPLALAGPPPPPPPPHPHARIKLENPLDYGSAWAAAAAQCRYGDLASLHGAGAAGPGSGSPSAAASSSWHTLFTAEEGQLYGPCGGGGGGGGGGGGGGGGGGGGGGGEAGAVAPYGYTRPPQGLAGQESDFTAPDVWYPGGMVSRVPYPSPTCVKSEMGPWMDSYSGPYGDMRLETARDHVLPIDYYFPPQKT
Description: Mammalian two-hybrid assay of AR N-C interaction in PC-3 cells. As to conditions: DHT. The format is cell-based. Here is the method: 44. […] PC-3 cells were transfected with 30 ng plasmids expressing Gal4(DBD)-AR-DL, VP16 or VP16-ARN combined with 1.5 μg pSG5, pSG5-bSV, -ARA55, or -SRC-1α as indicated. The reporter plasmid pG5-Luc (0.5 μg) and control plasmid pRL-Luc (1 ng) were transfected to every sample. The assay was carried out as described in FIG. 29C.
474. Mouse myoblast cell line (C2C12), human prostate cancer cell lines (PC-3 and DU145), and monkey kidney fibroblast cell line (COS-1) were maintained in Dulbecco's minimum essential medium (DMEM) containing penicillin (25 units/ml), streptomycin ([…]), and 10% fetal bovine serum (FBS). In mammalian two-hybrid assay, transfections were performed using the calcium phosphate precipitation method as described previously (15). Briefly, 1.5-3×10^5 cells were plated on 35-mm dishes for 24 h, and the medium was changed to DMEM containing 10% charcol-dextran stripped FBS (CD-FBS) 2 h before transfection. Cells were transfected with 0.5 μg plasmids expressing Gal4(DBD) and VP-16 fusion proteins as indicated. Gal4 response element controlled Firefly luciferase expression plasmid, pG5-Luc, was used as reporter gene. A Renilla luciferase expression plasmid pRL-SV40 was used as an internal control for transfection efficiency. The total amount of DNA was adjusted to 5 μg with pCMX-VP16 vectors. […]

Assay [6] concerns AR. Description: AR transactivation assay, MMTV-CAT reporter, transient transfection (Example 1). The format is cell-based, human. The note with it: PC3 cells; TGF-β 5 ng/ml. On the procedure:
Human prostate cancer DU145 or PC3 cells, or human lung carcinoma cells NCI H1299 were grown in Dulbecco's minimal essential medium (DMEM) containing penicillin (25 U/ml), streptomycin (25˜g/ml), and 5% fetal calf serum (FCS). One hour before transfection, the medium was changed to DMEM with 5% charcoal-stripped FCS. […] A β-galactosidase expression plasmid, pCMV-β-gal, was used as an internal control for transfection efficiency.
The medium was changed 24 hr posttransfection and the cells treated with either steroid hormones or hydroxyflutamide, and cultured for an additional 24 hr. Cells were harvested and assayed for CAT activity after the cell lysates were normalized by using β-galactosidaseas an internal control. Chloramphenicol acetyltransferase (CA) activity was visualized by PhosphorImager (Molecular Dynamics) and quantitated by ImageQuant software (Molecular Dynamics).
Target sequence in this assay (P10275 whole entry, the tested form may be a part): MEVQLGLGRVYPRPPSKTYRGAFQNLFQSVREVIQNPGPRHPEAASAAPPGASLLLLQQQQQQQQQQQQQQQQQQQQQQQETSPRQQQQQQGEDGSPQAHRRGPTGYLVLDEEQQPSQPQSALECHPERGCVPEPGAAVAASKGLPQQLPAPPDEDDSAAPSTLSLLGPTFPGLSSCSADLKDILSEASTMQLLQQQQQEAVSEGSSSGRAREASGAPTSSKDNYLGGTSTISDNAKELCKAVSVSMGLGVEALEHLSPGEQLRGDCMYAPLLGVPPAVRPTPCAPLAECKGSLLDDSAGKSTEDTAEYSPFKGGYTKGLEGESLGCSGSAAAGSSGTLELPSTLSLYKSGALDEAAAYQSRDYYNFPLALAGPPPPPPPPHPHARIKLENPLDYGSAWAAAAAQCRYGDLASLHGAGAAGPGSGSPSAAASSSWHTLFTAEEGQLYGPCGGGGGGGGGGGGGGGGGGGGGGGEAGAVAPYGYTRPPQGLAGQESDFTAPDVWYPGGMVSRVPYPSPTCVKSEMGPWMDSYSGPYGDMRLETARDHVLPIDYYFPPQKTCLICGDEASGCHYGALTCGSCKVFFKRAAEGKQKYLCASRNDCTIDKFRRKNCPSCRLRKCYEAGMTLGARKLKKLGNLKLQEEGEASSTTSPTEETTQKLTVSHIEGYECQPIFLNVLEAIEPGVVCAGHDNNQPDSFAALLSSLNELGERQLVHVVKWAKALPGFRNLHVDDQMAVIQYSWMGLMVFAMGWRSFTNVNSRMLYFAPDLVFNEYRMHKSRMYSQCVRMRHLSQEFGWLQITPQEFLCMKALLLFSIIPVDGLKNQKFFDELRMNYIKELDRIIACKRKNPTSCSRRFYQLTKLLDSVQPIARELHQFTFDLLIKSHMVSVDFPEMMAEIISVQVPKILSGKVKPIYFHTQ

The subject of assay [7] is ARA55 mRNA. Description: Northern blot of ARA55 mRNA in PC3 cells. Type of assay: cell-based, human. The note with it: 5 ng/ml. The source says: 360. The total RNA (25˜g) was fractionated on a 1% formaldehyde-MOPS agarose gel, transferred onto a Hybond-N nylon membrane (Amersham) and prehybridized. A probe corresponding to the 900 bp C-terminus of ARA55 or an ARA54-specific sequence was 32P-labeled in vitro using Random Primed DNA Labeling Kit (Boehringer-Mannheim) according to the manufacture's protocol and hybridized overnight. After washing, the blot was exposed and quantified by Molecular Dynamics PhosphorImager. β-actin was used to monitor the amount of total RNA in each lane.

Assay [8] concerns AR. Description: AR transactivation dual-luciferase assay with supervillin (Example 6). The format is cell-based, human. As to conditions: COS-1 cells; 10 nM DHT; MMTV-Luc. On the procedure: In AR transactivation activity assays, transfections were performed using SuperFect (Qiagen, Chatsworth, Calif.) following protocols described in manual provided by Qiagen. Briefly, cells were plated on 35 mm dishes and after 24 h were transfected using the SuperFect kit. The total DNA amount was adjusted to 2 μg with pSG5 or pEGFP vectors. The medium was changed to DMEM with 10% CD-FBS 2 h after transfection. After 24 h, the DMEM with 10% CD-FBS was changed again, and the cells were treated with various steroids. Cells were harvested after 24 h for dual-luciferase assay as described in protocol provided by Promega. At least three independent experiments were carried out in each case.
Target sequence in this assay (P10275 with tags, fused parts or gaps DEL79-80/DUP473-473): as the sequence (P10275 with tags, fused parts or gaps DEL79-80/DUP473-473) above

For `C[C@]12CCC(=O)C[C@@H]1CC[C@@H]1[C@@H]2CC[C@]2(C)[C@@H](O)CC[C@@H]12` [DHT, 5α-dihydrotestosterone, reference compound], the “p27^(KIP1) protein expression” value in assay [1] was “induced p27^(KIP1) protein expression”. Besides, in assay [2], the LNCaP cell apoptosis result was “promotes LNCaP cell apoptosis”.
For `Oc1ccc(C=Cc2cc(O)cc(O)c2)cc1` [resveratrol], in assay [3], the “expression of ARA70 and AR transactivation” value was “repress the expression of ARA70 and AR transactivation”.
In the case of “D1: AR peptide D1 (aa 551-600) within AR DBD (DYYFPPQKTCLICGDEASGCHYGALTCGSCKVFFKRAAEGKQKYLCASRN; UniProt P10275 551-600, looked up, fragment)”, in assay [4], the “effect on gelsolin enhanced AR activity” value is reported as “suppressed gelsolin enhanced AR activity”.
Still for that read-out and setting: the same measure for “HI-2: AR peptide H1-2 (aa 655-695) within AR LBD (TTQKLTVSHIEGYECQPIFLNVLEAIEPGVVCAGHDNNQPD; left off: small tags and cut ends)”: “suppressed gelsolin enhanced AR activity”.
Turning to “SRC-1: p160 steroid receptor coactivator-1”, in assay [5], the “effect on AR N-C interaction” value is listed as “further enhance”.
As to TGF-β [reference compound], the “increase of AR transcription activity” value in assay [6] is on record as 70%. Moreover, the “induction of ARA55 mRNA” value in assay [7] stood at 2 fold.
As to “bSV(831-1281): peptide containing a.a. 831-1281 of bSV, conjugated with EGFP”, in assay [8], the “AR transactivation with EGFP-bSV construct” value is on record as 248 fold.
Consider “bSV(1010-1792): domain within SV (a.a. 1010-1792), conjugated with EGFP”, for which the “effect of EGFP-bSV construct on AR transactivation” value in assay [8] is listed as “only a marginal effect”.
As for “gelsolin: multifunction actin-binding protein, AR coregulator”, the “inhibition of AR activity by HF with added gelsolin” value in assay [4] (100 nM HF, normal 10% FCS medium) came out at 40%. Also, in assay [4] (DU145 cells, 10 nM DHT), the “enhancement of AR transcription activity” value is recorded as 2-3 fold. Moreover, the “effect on AR transcription activity” value in assay [4] (DU145 cells, absence of DHT) was “no significant effect”.
